According to patent US7670806B2, “ADP-ribosyl acceptor hydrolase 3 (ARH3) polypeptides and methods of use” (The United States of America as represented by the …, priority 2005, dated 2010):

Assays:
[1] = Poly(ADP-ribose) hydrolysis (autoradiography, high resolution PAGE, HPLC); assay type: biochemical; details: [32P]poly(ADP-ribose) or poly(ADP-ribose)PARP; 37° C.; autoradiography / PAGE / HPLC
Experimental: Poly(ADP-ribose) hydrolysis by autoradiography. [^32P]poly(ADP-ribose)PARP (500 ng of PARP with poly(ADP-ribose) was incubated (37° C., 2 h) with 2 μM ARH in 25 μl of 50 mM potassium phosphate buffer, pH 7.5, with or without 10 mM MgCl2 and/or 5 mM DTT. Reactions were stopped by adding 6 μl of 5× Laemmli buffer. Samples (20 μl) of proteins were separated by SDS-PAGE in 4-20% gels and transferred to nitrocellulose membranes that were exposed to X-ray film (Kodak) for 10 h.
Hydrolysis of poly(ADP-ribose) by PARG and ARH3. Purified [^32P] poly(ADP-ribose) (5.5×10^5 cpm, ˜300 nM ADP-ribose) was incubated for the indicated time at 37° C. in 25 μl of 50 mM potassium phosphate, pH 7.5, containing 10 mM MgCl2 and 5 mM DTT with enzyme or other additions as indicated and terminated by addition of 25 μl of 2× electrophoresis buffer (Invitrogen). [^32P]AMP was generated by incubation (37° C., 3 h) of 10 μM [^32P] NAD (10 μCi/reaction) with pyrophosphatase (40 units/mg from SIGMA, 1 mg/ml) in 25 μl of 50 mM KPO4, pH 7.5, and 10 mM MgCl2. [^32P] […]
Poly(ADP-ribose)PARP was used as substrate to assay potential poly(ADP-ribose) hydrolase activities of recombinant ARH1, 2 or 3. […] Fractions (1 ml) were collected for liquid scintillation counting to quantify [^14C]ADP-ribose, which was eluted in fractions from 34 min to 43 min. […]

[2] = molecular target: T1, ARH3 (Mus musculus, UniProt Q8CG72); experiment: Inhibition of ARH3-catalyzed hydrolysis of O-acetyl-ADP-ribose; assay type: biochemical
T1 construct: The entire coding regions were ligated into pGEX-2T expression vector; GST (N); made in house; host or cells: E. coli BL21 Rosetta
T1 sequence (Q8CG72 1-370): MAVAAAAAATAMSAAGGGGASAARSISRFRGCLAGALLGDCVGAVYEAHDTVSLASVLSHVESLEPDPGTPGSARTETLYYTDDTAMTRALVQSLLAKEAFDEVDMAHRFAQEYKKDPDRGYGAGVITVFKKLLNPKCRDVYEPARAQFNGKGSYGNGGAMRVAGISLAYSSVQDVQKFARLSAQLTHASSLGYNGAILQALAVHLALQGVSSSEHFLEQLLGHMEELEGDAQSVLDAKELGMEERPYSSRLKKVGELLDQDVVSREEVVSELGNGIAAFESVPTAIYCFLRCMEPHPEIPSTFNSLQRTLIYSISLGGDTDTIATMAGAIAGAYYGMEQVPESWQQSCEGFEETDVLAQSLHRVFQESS
Experimental: FIG. 15A is a graph of the results from an assay with 2 pmol of ARH3 and the indicated amount of ADP-ribose (●) or β-NAD (∘) in 200 μl for 2 h at 30° C., as described in FIG. 11B. FIG. 15B is a graph of the inhibition of ARH3 hydrolysis by ADP-ribose data schematized for Lineweaver-Burk plot.
Mouse ARH3 (2 pmol) and 2.5 μM O-acetyl-[^14C]ADP-ribose (5,000 cpm) in 200 μl of buffer containing 50 mM potassium phosphate (pH 7.0), 10 mM MgCl2 and 5 mM DTT were incubated for 2 h at 30° C., before separation of substrate and products using RP-HPLC as described below.
Hydrolysis of O-acetyl-[^14C]ADP-ribose catalyzed by ARH3. Assays containing the indicated concentration of O-acetyl-[^14C]-ADP-ribose (0.1 to 2 nmol, 1,000 to 20,000 cpm) and 1.5 pmol of ARH3 in 200 μl of buffer (50 mM KPO4 (pH 7.0), 10 mM MgCl2, 5 mM DTT) were incubated at 30° C. for 20 min. Substrate and products were separated using RP-HPLC. Amounts of product were corrected for ADP-ribose produced in the absence of ARH3 before calculation of hydrolysis rates.
ADP-ribose inhibited ARH3-catalyzed hydrolysis of 2.5 μM O-acetyl-ADP-ribose, ˜50% at a concentration of ca. 10 μM.

[3] = Rafty et al. (2002), cited from earlier work

With “ARH1: 39-kDa ADP-ribose-(arginine) protein hydrolase, recombinant mouse or human” the “Poly(ADP-ribose) hydrolysis (in words)” value [1] was “did not”.

In the case of `Nc1ncnc2c1ncn2[C@@H]1O[C@H](COP(=O)(O)OP(=O)(O)OC[C@H]2OC(O)[C@H](O)[C@@H]2O)[C@@H](O)[C@H]1O` (some centres unmarked) [ADP-ribose], the “Inhibition of ARH3-catalyzed hydrolysis of O-acetyl-ADP-ribose” value ([2]; 2.5 μM O-acetyl-ADP-ribose, inhibitor at ca. 10 μM, 2 pmol ARH3, 2 h at 30° C.) is reported as roughly 50% and the Ki ([2]; Lineweaver-Burk plot, substrate O-acetyl-ADP-ribose) is reported as 8.6 µM.

In the case of “murine Nudix: murine Nudix family ADP-ribose pyrophosphatase (Rafty et al. 2002)”, the “kcat, O-acetyl-ADP-ribose” value [3] is given as 0.78 ± 0.18 s⁻¹ and the Km ([3]; read-out: Km for O-acetyl-ADP-ribose) is given as 45 ± 0.9 µM.
